These results are taken from PubChem BioAssay AID1259407 (Chemical Carcinogenesis Research Information System (CCRIS), 2018).

In the data set the test system is CCRIS mutagenicity, Ames/micronucleus/aberration tests. The data set is described as follows: CCRIS mutagenicity studies.
Setting [1] is: Test System: AMES SALMONELLA TYPHIMURIUM, Strain/Indicator: TA98, Metabolic Activation: NONE, Method: STANDARD PLATE.
[2] abbreviates: Test System: AMES SALMONELLA TYPHIMURIUM, Strain/Indicator: TA100, Metabolic Activation: NONE, Method: PREINCUBATION
[3] abbreviates: Test System: AMES SALMONELLA TYPHIMURIUM, Strain/Indicator: TA100, Metabolic Activation: NONE, Method: STANDARD PLATE.
The mark [4] stands for this setting: Test System: AMES SALMONELLA TYPHIMURIUM, Strain/Indicator: TA97, Metabolic Activation: NONE, Method: STANDARD PLATE.
The mark [5] stands for this setting: Test System: AMES SALMONELLA TYPHIMURIUM, Strain/Indicator: TA1535, Metabolic Activation: NONE, Method: STANDARD PLATE.
Where [6] appears, read: Test System: AMES SALMONELLA TYPHIMURIUM, Strain/Indicator: TA1537, Metabolic Activation: NONE, Method: STANDARD PLATE.
Setting [7] is: Test System: AMES SALMONELLA TYPHIMURIUM, Strain/Indicator: TA1538, Metabolic Activation: NONE, Method: STANDARD PLATE.
Setting [8] is: Test System: AMES SALMONELLA TYPHIMURIUM, Strain/Indicator: TA100, Metabolic Activation: RAT, LIVER, S-9, PCB, Method: PREINCUBATION

Molecules are shown by their SMILES. The source made the active and inactive calls. No rule for the calls is given here.

`C=C(C)C(=O)/C(=C\C(=O)O)OC`: the mutagenic call is, setting by setting: under setting [1], “inactive; negative”; (Test System: AMES SALMONELLA TYPHIMURIUM, Strain/Indicator: TA98, Metabolic Activation: RAT LIVER S-9, DELOREM 103, Method: STANDARD PLATE) “inactive; negative”; (Test System: AMES SALMONELLA TYPHIMURIUM, Strain/Indicator: TA98, Metabolic Activation: RAT, LIVER, MICROSOMES, PHENOBARBITAL, Method: STANDARD PLATE) “inactive; negative”; under setting [2], “inactive; negative”; under setting [3], “inactive; negative”; (Test System: AMES SALMONELLA TYPHIMURIUM, Strain/Indicator: TA100, Metabolic Activation: RAT LIVER S-9, DELOREM 103, Method: STANDARD PLATE) “inactive; negative”. For the same compound, the mutagenic call was “inactive; negative” (Test System: AMES SALMONELLA TYPHIMURIUM, Strain/Indicator: TA100, Metabolic Activation: RAT, LIVER, MICROSOMES, PHENOBARBITAL, Method: STANDARD PLATE) and “inactive; negative” (Test System: AMES SALMONELLA TYPHIMURIUM, Strain/Indicator: TA100, Metabolic Activation: RAT, LIVER, S-9, PHENOBARBITAL, Method: PREINCUBATION).
Consider `C[n+]1ccn(COCCC(C)(C)[N+](=O)[O-])c1/C=N/O`, for which the mutagenic call was “inactive; negative” under setting [4]; “inactive; negative” (Test System: AMES SALMONELLA TYPHIMURIUM, Strain/Indicator: TA97, Metabolic Activation: S-9, Method: STANDARD PLATE); “inactive; negative” under setting [1]; “inactive; negative” (Test System: AMES SALMONELLA TYPHIMURIUM, Strain/Indicator: TA98, Metabolic Activation: S-9, Method: STANDARD PLATE); “inactive; negative” under setting [3]; “inactive; negative” (Test System: AMES SALMONELLA TYPHIMURIUM, Strain/Indicator: TA100, Metabolic Activation: S-9, Method: STANDARD PLATE). Also, the mutagenic call is “inactive; negative” (Test System: AMES SALMONELLA TYPHIMURIUM, Strain/Indicator: TA104, Metabolic Activation: NONE, Method: STANDARD PLATE); “inactive; negative” (Test System: AMES SALMONELLA TYPHIMURIUM, Strain/Indicator: TA104, Metabolic Activation: S-9, Method: STANDARD PLATE); “inactive; negative” under setting [5]; “inactive; negative” (Test System: AMES SALMONELLA TYPHIMURIUM, Strain/Indicator: TA1535, Metabolic Activation: S-9, Method: STANDARD PLATE); “inactive; negative” under setting [6]; “inactive; negative” (Test System: AMES SALMONELLA TYPHIMURIUM, Strain/Indicator: TA1537, Metabolic Activation: S-9, Method: STANDARD PLATE). Further, the mutagenic call runs as follows: under setting [7], “inactive; negative”; (Test System: AMES SALMONELLA TYPHIMURIUM, Strain/Indicator: TA1538, Metabolic Activation: S-9, Method: STANDARD PLATE) “inactive; negative”.
As for `O=[N+]([O-])c1cc(Cl)cc(Sc2cc(Cl)cc([N+](=O)[O-])c2O)c1O`, the mutagenic call reads like this: under setting [1], “inactive; negative”; (Test System: AMES SALMONELLA TYPHIMURIUM, Strain/Indicator: TA98, Metabolic Activation: RAT, LIVER, S-9, KANECHLOR 400, Method: STANDARD PLATE) “inactive; negative”; under setting [3], “inactive; negative”; (Test System: AMES SALMONELLA TYPHIMURIUM, Strain/Indicator: TA100, Metabolic Activation: RAT, LIVER, S-9, KANECHLOR 400, Method: STANDARD PLATE) “inactive; negative”; under setting [5], “inactive; negative”; (Test System: AMES SALMONELLA TYPHIMURIUM, Strain/Indicator: TA1535, Metabolic Activation: RAT, LIVER, S-9, KANECHLOR 400, Method: STANDARD PLATE) “inactive; negative”. Further, the mutagenic call under setting [6] is “inactive; negative”; the mutagenic call (Test System: AMES SALMONELLA TYPHIMURIUM, Strain/Indicator: TA1537, Metabolic Activation: RAT, LIVER, S-9, KANECHLOR 400, Method: STANDARD PLATE) was “inactive; negative”; the mutagenic call under setting [7] is “inactive; negative”; the mutagenic call (Test System: AMES SALMONELLA TYPHIMURIUM, Strain/Indicator: TA1538, Metabolic Activation: RAT, LIVER, S-9, KANECHLOR 400, Method: STANDARD PLATE) is “inactive; negative”.
In the case of `CCCCCOc1ccc(N=O)cc1`, the mutagenic call under setting [3] is “active; positive”.
`c1cnc2cnncc2c1`: the mutagenic call reads like this: (Test System: AMES SALMONELLA TYPHIMURIUM, Strain/Indicator: TA98, Metabolic Activation: NONE, Method: PREINCUBATION) “inactive; negative”; (Test System: AMES SALMONELLA TYPHIMURIUM, Strain/Indicator: TA98, Metabolic Activation: RAT, LIVER, S-9, PCB, Method: PREINCUBATION) “inactive; negative”; under setting [2], “inactive; negative”; under setting [8], “inactive; negative”.
Consider `CCCCCOC(=O)NO`, for which the mutagenic call (Test System: E. COLI, Strain/Indicator: WP2 UVRA, Metabolic Activation: NONE, Method: FLUCTUATION TEST) was “active; positive”.
Turning to `CCOC(=O)CNC(=O)CCCCSc1ncnc2nc[nH]c12`, the mutagenic call under setting [4] was “inactive; negative”; the mutagenic call (Test System: AMES SALMONELLA TYPHIMURIUM, Strain/Indicator: TA97, Metabolic Activation: RAT, LIVER, S-9, PHENOBARBITAL AND ALPHA-NAPHTHOFLAVONE, Method: STANDARD PLATE) was “inactive; negative”; the mutagenic call under setting [1] was “inactive; negative”; the mutagenic call (Test System: AMES SALMONELLA TYPHIMURIUM, Strain/Indicator: TA98, Metabolic Activation: RAT, LIVER, S-9, PHENOBARBITAL AND ALPHA-NAPHTHOFLAVONE, Method: STANDARD PLATE) is “inactive; negative”; the mutagenic call under setting [3] is “inactive; negative”; the mutagenic call (Test System: AMES SALMONELLA TYPHIMURIUM, Strain/Indicator: TA100, Metabolic Activation: RAT, LIVER, S-9, PHENOBARBITAL AND ALPHA-NAPHTHOFLAVONE, Method: STANDARD PLATE) is “inactive; negative”. Besides, the mutagenic call under setting [5] was “inactive; negative” and the mutagenic call (Test System: AMES SALMONELLA TYPHIMURIUM, Strain/Indicator: TA1535, Metabolic Activation: RAT, LIVER, S-9, PHENOBARBITAL AND ALPHA-NAPHTHOFLAVONE, Method: STANDARD PLATE) was “inactive; negative”.
With `CS(=O)(=O)Nc1ccc(Nc2c3ccccc3nc3ccccc23)cc1`, the mutagenic call under setting [6] was “active; positive”.
Regarding `c1ccc2c(c1)ccc1ccc3sccc3c12`, the mutagenic call was “active; positive” (Test System: Ames Salmonella typhimurium, Strain/Indicator: TA100, Metabolic Activation: None, Method: Plate incorporation) and “inactive; negative” (Test System: Ames Salmonella typhimurium, Strain/Indicator: TA104, Metabolic Activation: None, Method: Plate incorporation).
`CCCCN(C[C@@H](CO)OCc1ccccc1)N=O`: the mutagenic call by setting is: under setting [2], “active; positive”; under setting [8], “active; positive”.
